Reference: patent publication US20250145609A1, “3-SUBSTITUTED PYRIDAZINE COMPOUNDS AS SMARCA2 AND/OR SMARCA4 DEGRADERS” (Aurigene Oncology Limited, priority 2022, published 2025)

Experiments:
SMARCA4 = molecular target: T1, SMARCA4 (Homo sapiens, UniProt P51532); experiment: SMARCA4 degradation in VCaP cells by Western blot; type: cell-based; conditions: at 100 nM; for Percent SMARCA4 degradation at 0.1 µM: VCaP, 16 h; for Percent degradation SMARCA4: 16 hours
T1 construct: endogenous in cells; host or cells: VCaP (ATCC CRL-2876)
T1 sequence (P51532 whole entry): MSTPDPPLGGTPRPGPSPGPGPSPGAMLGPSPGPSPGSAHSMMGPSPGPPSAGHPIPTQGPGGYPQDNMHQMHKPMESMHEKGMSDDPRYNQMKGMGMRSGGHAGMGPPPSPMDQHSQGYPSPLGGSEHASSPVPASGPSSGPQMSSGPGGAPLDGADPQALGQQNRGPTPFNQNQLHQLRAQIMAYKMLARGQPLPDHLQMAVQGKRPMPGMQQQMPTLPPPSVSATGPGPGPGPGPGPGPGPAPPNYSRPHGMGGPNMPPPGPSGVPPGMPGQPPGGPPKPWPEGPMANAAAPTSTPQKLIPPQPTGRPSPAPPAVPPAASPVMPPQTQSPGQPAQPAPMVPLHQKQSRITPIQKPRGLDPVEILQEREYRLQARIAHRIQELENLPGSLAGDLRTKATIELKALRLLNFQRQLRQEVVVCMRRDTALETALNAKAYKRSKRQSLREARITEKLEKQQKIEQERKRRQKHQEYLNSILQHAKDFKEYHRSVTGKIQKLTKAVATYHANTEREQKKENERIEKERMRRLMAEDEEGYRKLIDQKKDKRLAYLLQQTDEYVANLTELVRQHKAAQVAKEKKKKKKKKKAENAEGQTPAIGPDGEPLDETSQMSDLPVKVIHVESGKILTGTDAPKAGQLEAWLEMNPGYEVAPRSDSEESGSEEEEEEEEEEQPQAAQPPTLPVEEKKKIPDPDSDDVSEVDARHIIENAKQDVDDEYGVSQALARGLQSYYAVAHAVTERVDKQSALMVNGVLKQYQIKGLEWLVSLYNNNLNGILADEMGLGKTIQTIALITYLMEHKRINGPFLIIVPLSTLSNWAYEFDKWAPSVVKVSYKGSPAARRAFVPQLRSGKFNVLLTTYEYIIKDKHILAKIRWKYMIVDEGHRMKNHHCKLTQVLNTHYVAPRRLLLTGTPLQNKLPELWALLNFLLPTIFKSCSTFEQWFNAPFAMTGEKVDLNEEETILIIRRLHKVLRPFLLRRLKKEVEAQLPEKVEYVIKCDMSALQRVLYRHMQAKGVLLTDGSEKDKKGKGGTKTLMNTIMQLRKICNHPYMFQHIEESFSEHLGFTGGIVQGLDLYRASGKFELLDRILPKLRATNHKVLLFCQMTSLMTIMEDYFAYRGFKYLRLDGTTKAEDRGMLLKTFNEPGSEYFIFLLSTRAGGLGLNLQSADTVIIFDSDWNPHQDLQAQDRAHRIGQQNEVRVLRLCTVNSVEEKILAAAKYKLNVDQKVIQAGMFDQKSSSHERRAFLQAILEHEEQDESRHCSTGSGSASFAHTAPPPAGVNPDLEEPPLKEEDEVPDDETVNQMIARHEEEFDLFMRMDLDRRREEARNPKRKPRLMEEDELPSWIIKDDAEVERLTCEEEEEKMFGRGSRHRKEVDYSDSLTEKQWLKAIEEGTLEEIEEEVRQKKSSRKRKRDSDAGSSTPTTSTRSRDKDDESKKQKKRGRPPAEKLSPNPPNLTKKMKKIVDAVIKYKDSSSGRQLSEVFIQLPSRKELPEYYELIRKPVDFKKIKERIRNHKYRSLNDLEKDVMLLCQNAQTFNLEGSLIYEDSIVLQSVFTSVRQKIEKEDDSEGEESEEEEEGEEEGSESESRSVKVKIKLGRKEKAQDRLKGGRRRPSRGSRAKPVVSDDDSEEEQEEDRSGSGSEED
Experimental: (§1) Example-P2: Determination of SMARCA2 and SMARCA4 Degradation in VCaP Cells by Western Blot
(§2) VCaP (ATCC CRL-2876) was plated in 6 well plates using complete Dulbecco's Modified Eagle's Medium. On the third day, compounds of present invention were added to cells from 10 mM stocks made in DMSO (Sigma Cat no. D2650). Each compound was tested at 100 nM concentration with DMSO not exceeding final percentage of 0.3 in the cells. Cells were incubated with the compound for 16 hours followed by harvesting with 1×RIPA lysis buffer (Thermo Fischer, catalogue number #89900) containing protease inhibitor cocktail (Sigma catalogue number #P-8340). Equal amount of protein was loaded on SDS PAGE gel for electrophoresis. Western blot was carried out for detection of either SMARCA2 (Cell signalling technologies, catalogue number #11966) or SMARCA4 antibody (Cell signalling technologies, catalogue number #52251). Beta-Tubulin antibody (Cell signalling technologies, catalogue number #86298) was used as loading control. Percentage of SMARCA2 or SMARCA4 degradation was calculated by using formula: […]

SMARCA2 = molecular target: T2, SMARCA2 (Homo sapiens, UniProt P51531); experiment: SMARCA2 degradation in VCaP cells by Western blot; type: cell-based; conditions: at 100 nM, 16 hours
T2 construct: endogenous in cells; host or cells: VCaP (ATCC CRL-2876)
T2 sequence (P51531 whole entry): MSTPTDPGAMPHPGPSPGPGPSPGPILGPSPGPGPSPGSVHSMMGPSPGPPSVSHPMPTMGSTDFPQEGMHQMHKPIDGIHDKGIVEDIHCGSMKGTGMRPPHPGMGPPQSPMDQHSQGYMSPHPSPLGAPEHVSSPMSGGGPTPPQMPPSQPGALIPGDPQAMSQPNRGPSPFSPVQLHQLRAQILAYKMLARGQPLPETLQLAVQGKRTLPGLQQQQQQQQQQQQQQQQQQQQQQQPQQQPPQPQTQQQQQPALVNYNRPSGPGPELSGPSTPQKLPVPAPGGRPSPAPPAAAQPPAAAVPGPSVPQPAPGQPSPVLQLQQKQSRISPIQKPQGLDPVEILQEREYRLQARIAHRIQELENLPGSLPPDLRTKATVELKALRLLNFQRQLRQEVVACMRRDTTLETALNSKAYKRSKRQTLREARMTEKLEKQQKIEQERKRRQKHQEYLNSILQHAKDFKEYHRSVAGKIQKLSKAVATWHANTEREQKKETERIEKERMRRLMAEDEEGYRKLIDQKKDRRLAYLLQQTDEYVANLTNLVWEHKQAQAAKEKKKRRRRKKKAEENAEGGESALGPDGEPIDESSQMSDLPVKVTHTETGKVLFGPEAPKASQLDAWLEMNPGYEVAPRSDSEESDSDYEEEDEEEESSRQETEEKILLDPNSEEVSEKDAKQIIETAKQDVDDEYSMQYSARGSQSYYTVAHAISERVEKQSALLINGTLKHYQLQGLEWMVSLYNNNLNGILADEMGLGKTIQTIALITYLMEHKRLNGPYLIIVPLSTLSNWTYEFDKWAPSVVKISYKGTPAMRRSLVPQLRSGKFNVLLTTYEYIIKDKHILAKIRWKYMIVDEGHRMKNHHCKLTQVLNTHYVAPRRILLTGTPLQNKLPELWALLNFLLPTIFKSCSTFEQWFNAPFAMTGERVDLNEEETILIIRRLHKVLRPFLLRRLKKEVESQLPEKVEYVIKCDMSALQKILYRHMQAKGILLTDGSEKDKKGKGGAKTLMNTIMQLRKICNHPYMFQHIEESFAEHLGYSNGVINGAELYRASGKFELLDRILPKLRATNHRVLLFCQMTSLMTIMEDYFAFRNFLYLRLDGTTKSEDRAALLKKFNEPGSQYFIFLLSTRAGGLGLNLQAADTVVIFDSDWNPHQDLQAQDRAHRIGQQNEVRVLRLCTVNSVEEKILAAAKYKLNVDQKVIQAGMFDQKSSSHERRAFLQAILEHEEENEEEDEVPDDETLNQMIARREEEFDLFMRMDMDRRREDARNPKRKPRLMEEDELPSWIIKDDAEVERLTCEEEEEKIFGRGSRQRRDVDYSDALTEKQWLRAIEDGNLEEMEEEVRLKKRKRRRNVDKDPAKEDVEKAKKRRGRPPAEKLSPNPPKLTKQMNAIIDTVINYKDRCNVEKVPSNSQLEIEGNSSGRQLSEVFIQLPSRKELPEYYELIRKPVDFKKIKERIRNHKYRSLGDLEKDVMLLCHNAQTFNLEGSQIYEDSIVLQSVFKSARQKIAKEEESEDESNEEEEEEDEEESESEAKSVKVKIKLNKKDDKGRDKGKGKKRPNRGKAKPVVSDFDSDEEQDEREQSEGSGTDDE
Experimental: as §1, §2

SMILES | Percent SMARCA4 degradation at 0.1 µM (SMARCA4) [%] | Percent degradation SMARCA2 (SMARCA2) [%] | Percent degradation SMARCA4 (SMARCA4) [%]
COc1ncccc1-c1cc(-c2ccc(N3CCN(CC(=O)N[C@H](C(=O)N4C[C@H](O)C[C@H]4C(=O)N[C@@H](C)c4ccc(-c5scnc5C)cc4)C(C)(C)C)CC3)cc2)c(N)nn1 [Compound 15, (2S,4R)-1-((S)-2-(2-(4-(4-(3-amino-6-(2-methoxypyridin-3-yl)pyridazin-4-yl)phenyl)piperazin-1-yl)acetamido)-3,3-dimethylbutanoyl)-4-hydroxy-N—((S)-1-(4-(4-methylthiazol-5-yl)phenyl)ethyl)pyrrolidine-2-carboxamide] | 16 | 8 | –
Cc1ncsc1-c1ccc([C@H](C)NC(=O)[C@@H]2C[C@@H](O)CN2C(=O)[C@@H](NC(=O)CN2CCC(c3cccc(-c4cc(-c5ccccc5O)nnc4N)c3)CC2)C(C)(C)C)cc1 [Compound 46, (2S,4R)-1-((S)-2-(2-(4-(3-(3-amino-6-(2-hydroxyphenyl)pyridazin-4-yl)phenyl)piperidin-1-yl)acetamido)-3,3-dimethylbutanoyl)-4-hydroxy-N-((S)-1-(4-(4-methylthiazol-5-yl)phenyl)ethyl)pyrrolidine-2-carboxamide] | 96 | 98 | –
Cc1ncsc1-c1ccc([C@H](C)NC(=O)[C@@H]2C[C@@H](O)CN2C(=O)[C@@H](NC(=O)CCC#Cc2ccc(-c3cc(-c4ccccc4O)nnc3N)cc2)C(C)(C)C)cc1 [Compound 20, (2S,4R)-1-((S)-2-(5-(4-(3-amino-6-(2-hydroxyphenyl)pyridazin-4-yl)phenyl)pent-4-ynamido)-3,3-dimethylbutanoyl)-4-hydroxy-N-((S)-1-(4-(4-methylthiazol-5-yl)phenyl)ethyl)pyrrolidine-2-carboxamide] | 97 | 98 | –
Cc1ncsc1-c1ccc([C@H](C)NC(=O)[C@@H]2C[C@@H](O)CN2C(=O)[C@@H](NC(=O)CCN2CCN(c3ccc(-c4cc(-c5ccccc5O)nnc4N)cc3)CC2)C(C)(C)C)cc1 [Compound 18, (2S,4R)-1-((S)-2-(3-(4-(4-(3-amino-6-(2-hydroxyphenyl)pyridazin-4-yl)phenyl)piperazin-1-yl)propanamido)-3,3-dimethylbutanoyl)-4-hydroxy-N—((S)-1-(4-(4-methylthiazol-5-yl)phenyl)ethyl)pyrrolidine-2-carboxamide] | 93 | 98 | –
Cc1ncsc1-c1ccc([C@H](C)NC(=O)[C@@H]2C[C@@H](O)CN2C(=O)[C@H](c2cc(-c3ccc(-c4cc(-c5ccccc5O)nnc4N)cc3)no2)C(C)C)cc1 [Compound 5, (2S,4R)-1-((S)-2-(3-(4-(3-amino-6-(2-hydroxyphenyl)pyridazin-4-yl)phenyl)isoxazol-5-yl)-3-methylbutanoyl)-4-hydroxy-N—((S)-1-(4-(4-methylthiazol-5-yl)phenyl)ethyl)pyrrolidine-2-carboxamide] | 62 | 57 | –
Cc1ncsc1-c1ccc([C@H](C)NC(=O)[C@@H]2C[C@@H](O)CN2C(=O)[C@@H](NC(=O)CN2CCC(c3ccc(-c4cc(-c5ccccc5O)nnc4N)cc3)CC2C)C(C)(C)C)cc1 (single isomer, unassigned) [Compound 37] | – | 100 | 97
Cc1ncsc1-c1ccc([C@H](C)NC(=O)[C@@H]2C[C@@H](O)CN2C(=O)[C@@H](NC(=O)CN2CCC(N(C)c3ccc(-c4cc(-c5ccccc5O)nnc4N)cc3)CC2)C(C)(C)C)cc1 [Compound 55, (2S,4R)-1-((S)-2-(2-(4-((4-(3-amino-6-(2-hydroxyphenyl)pyridazin-4-yl)phenyl)(methyl)amino)piperidin-1-yl)acetamido)-3,3-dimethylbutanoyl)-4-hydroxy-N—((S)-1-(4-(4-methylthiazol-5-yl)phenyl)ethyl)pyrrolidine-2-carboxamide] | 71 | 99 | –
Cc1ncsc1-c1ccc([C@H](C)NC(=O)[C@@H]2C[C@@H](O)CN2C(=O)[C@@H](NC(=O)C2CCN(c3ccc(-c4cc(-c5ccccc5O)nnc4N)cc3)CC2)C(C)(C)C)cc1 [Compound 47, 1-(4-(3-amino-6-(2-hydroxyphenyl)pyridazin-4-yl)phenyl)-N-((S)-1-((2S,4R)-4-hydroxy-2-(((S)-1-(4-(4-methylthiazol-5-yl)phenyl)ethyl)carbamoyl)pyrrolidin-1-yl)-3,3-dimethyl-1-oxobutan-2-yl)piperidine-4-carboxamide] | 95 | 99 | –

Now from value to compound:

Percent SMARCA4 degradation at 0.1 µM (SMARCA4) [%] | Percent degradation SMARCA2 (SMARCA2) [%] | Percent degradation SMARCA4 (SMARCA4) [%] | SMILES
– | 97 | 92 | Cc1ncsc1-c1ccc([C@H](C)NC(=O)[C@@H]2C[C@@H](O)CN2C(=O)[C@@H](NC(=O)CC2CCC(c3ccc(-c4cc(-c5ccccc5O)nnc4N)cc3)CC2)C(C)(C)C)cc1 (single isomer, unassigned) [Compound 45]
38 | 27 | – | Cc1ncsc1-c1ccc([C@H](C)NC(=O)[C@@H]2C[C@@H](O)CN2C(=O)[C@@H](NC(=O)CN2CCN(c3ccc(-c4cc(Cl)nnc4N)cc3)CC2)C(C)(C)C)cc1 [Compound 13, (2S,4R)-1-((S)-2-(2-(4-(4-(3-amino-6-chloropyridazin-4-yl)phenyl)piperazin-1-yl)acetamido)-3,3-dimethylbutanoyl)-4-hydroxy-N—((S)-1-(4-(4-methylthiazol-5-yl)phenyl)ethyl)pyrrolidine-2-carboxamide]
0 | 66 | – | Cc1ncsc1-c1ccc([C@H](C)NC(=O)[C@@H]2C[C@@H](O)CN2C(=O)[C@@H](NC(=O)Cn2cc(-c3ccc(-c4cc(-c5ccccc5O)nnc4N)cc3)cn2)C(C)(C)C)cc1 [Compound 49, (2S,4R)-1-((S)-2-(2-(4-(4-(3-amino-6-(2-hydroxyphenyl)pyridazin-4-yl)phenyl)-1H-pyrazol-1-yl)acetamido)-3,3-dimethylbutanoyl)-4-hydroxy-N-((S)-1-(4-(4-methylthiazol-5-yl)phenyl)ethyl)pyrrolidine-2-carboxamide]
0 | 42 | – | Cc1ncsc1-c1ccc([C@H](C)NC(=O)[C@@H]2C[C@@H](O)CN2C(=O)[C@@H](NC(=O)C(C)N2CCC(c3ccc(-c4cc(-c5ccccc5O)nnc4N)cc3)CC2)C(C)(C)C)cc1 (single isomer, unassigned) [Compound 33]
18 | 0 | – | Cc1ncsc1-c1ccc([C@H](C)NC(=O)[C@@H]2C[C@@H](O)CN2C(=O)C(c2cc(-c3ccc(-c4cc(-c5ccccc5C(F)F)nnc4N)cc3)no2)C(C)C)cc1 (stereo partly drawn) [Compound 8, (2S,4R)-1-(2-(3-(4-(3-amino-6-(2-(difluoromethyl)phenyl)pyridazin-4-yl)phenyl)isoxazol-5-yl)-3-methylbutanoyl)-4-hydroxy-N-((S)-1-(4-(4-methylthiazol-5-yl)phenyl)ethyl)pyrrolidine-2-carboxamide]
97 | 99 | – | Cc1ncsc1-c1ccc([C@H](C)NC(=O)[C@@H]2C[C@@H](O)CN2C(=O)[C@@H](NC(=O)CN2CCC(Nc3ccc(-c4cc(-c5ccccc5O)nnc4N)cc3)CC2)C(C)(C)C)cc1 [Compound 54, (2S,4R)-1-((S)-2-(2-(4-((4-(3-amino-6-(2-hydroxyphenyl)pyridazin-4-yl)phenyl)amino)piperidin-1-yl)acetamido)-3,3-dimethylbutanoyl)-4-hydroxy-N—((S)-1-(4-(4-methylthiazol-5-yl)phenyl)ethyl)pyrrolidine-2-carboxamide]
49 | 82 | – | Cc1ncsc1-c1ccc([C@H](C)NC(=O)[C@@H]2C[C@@H](O)CN2C(=O)[C@@H](NC(=O)CCCC#Cc2ccc(-c3cc(-c4cc(F)ccc4O)nnc3N)cc2)C(C)(C)C)cc1 [Compound 23, (2S,4R)-1-((S)-2-(6-(4-(3-amino-6-(5-fluoro-2-hydroxyphenyl)pyridazin-4-yl)phenyl)hex-5-ynamido)-3,3-dimethylbutanoyl)-4-hydroxy-N-((S)-1-(4-(4-methylthiazol-5-yl)phenyl)ethyl)pyrrolidine-2-carboxamide]
11 | 98 | – | Cc1ncsc1-c1ccc([C@H](C)NC(=O)[C@@H]2C[C@@H](O)CN2C(=O)C(c2cc(-c3ccc(-c4cc(-c5ccccc5O)nnc4N)cc3)no2)C(C)C)cc1 (stereo partly drawn) [Compound 4, (2S,4R)-1-(2-(3-(4-(3-amino-6-(2-hydroxyphenyl)pyridazin-4-yl)phenyl)isoxazol-5-yl)-3-methylbutanoyl)-4-hydroxy-N—((S)-1-(4-(4-methylthiazol-5-yl)phenyl)ethyl)pyrrolidine-2-carboxamide]
47 | 59 | – | Cc1ncsc1-c1ccc([C@H](C)NC(=O)[C@@H]2C[C@@H](O)CN2C(=O)[C@@H](NC(=O)CN2CCN(c3ccc(-c4cc(-c5ccccc5F)nnc4N)cc3)CC2)C(C)(C)C)cc1 [Compound 27, (2S,4R)-1-((S)-2-(2-(4-(4-(3-amino-6-(2-fluorophenyl)pyridazin-4-yl)phenyl)piperazin-1-yl)acetamido)-3,3-dimethylbutanoyl)-4-hydroxy-N—((S)-1-(4-(4-methylthiazol-5-yl)phenyl)ethyl)pyrrolidine-2-carboxamide]
